Measured values as given in ChEMBL document CHEMBL1127174, “Inhibition of cartilage breakdown by isothiazolones” (Bioorg Med Chem Lett, 1993).

Species: Bos taurus
Experiment: In vitro ability to inhibit cartilage breakdown by using 1L-1beta stimulated bovine nasal cartilage assay
Type: functional

| Compound | IC50 |
| --- | --- |
| Nc1ccccc1C(=O)Nc1ccccc1 | > 30 µM |
| O=c1c2ccccc2sn1-c1ccccc1 | 3 µM |
| O=c1c2cccnc2sn1-c1ccc(Cl)cc1 | 3.7 µM |
| COc1ccc2cc([C@H](C)C(=O)O)ccc2c1 [NAPROXEN] | > 30 µM |
| COc1ccc(-n2sc3ccccc3c2=O)cc1 | > 30 µM |
| O=c1c2ccccc2[se]n1-c1ccccc1 [EBSELEN] | 13 µM |
| CN(C)[C@@H]1C(O)=C(C(N)=O)C(=O)[C@@]2(O)C(O)=C3C(=O)c4c(O)cccc4[C@@](C)(O)[C@H]3C[C@@H]12 [TETRACYCLINE] | > 30 µM |
| COc1ccc2c(c1)c(CC(=O)O)c(C)n2C(=O)c1ccc(Cl)cc1 [INDOMETHACIN] | > 30 µM |
| O=c1ccsn1-c1ccccc1 | > 30 µM |
| COc1ccc(-n2sc3ncccc3c2=O)cc1 | 13.5 µM |
| O=C(Nc1ccccc1)c1ccccc1O [SALICYLANILIDE] | > 30 µM |
| CNC(=O)C(Cc1ccc(OC)cc1)NC(=O)[C@H](CC(C)C)[C@H](C)C(=O)NO (single isomer, unassigned) | 3 µM |
| O=c1c2ccccc2sn1-c1ccc(Cl)cc1 | 3.6 µM |
